According to ChEMBL document CHEMBL1201862, “PubChem BioAssay data set” (2004):
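Compound exposure: 48 hours, 5 concentrations, 96-well plates. Here, GI50 denotes the concentration required for 50% inhibition of growth.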 Calls of active or inactive are those of the source. Cut-off read from the data, not from the text of the source: active = GI50 up to about 1.1 µM and inactive = higher.

How the values were obtained:
Test in all cases: growth of human tumour cells (NCI), 48 h
OVCAR-8 = system: OVCAR-8
RXF 393 = system: RXF 393
Malme-3M = system: Malme-3M
UACC-257 = system: UACC-257
Hs-578T = system: Hs-578T
CCRF-CEM = system: CCRF-CEM
MDA-MB-435 = system: MDA-MB-435
NCI-H460 = system: NCI-H460
HL-60 = system: HL-60
SR = system: SR
NCI-H522 = system: NCI-H522
DU-145 = system: DU-145
LOX IMVI = system: LOX IMVI
ACHN = system: ACHN
A549 = system: A549
SW-620 = system: SW-620
SK-MEL-28 = system: SK-MEL-28
EKVX = system: EKVX
SNB-75 = system: SNB-75
BT-549 = system: BT-549

Row | Compound | GI50 (OVCAR-8) | GI50 (RXF 393) | GI50 (Malme-3M) | GI50 (UACC-257) | GI50 (Hs-578T) | GI50 (CCRF-CEM) | GI50 (MDA-MB-435) | GI50 (NCI-H460) | GI50 (HL-60) | GI50 (SR) | GI50 (NCI-H522) | GI50 (DU-145) | GI50 (LOX IMVI) | GI50 (ACHN) | GI50 (A549) | GI50 (SW-620) | GI50 (SK-MEL-28) | GI50 (EKVX) | GI50 (SNB-75) | GI50 (BT-549)
1 | C/C(=N\NC(=S)N1CCCCC1)c1cccc(C)n1 | < 0.01 µM (active) | 0.238 µM (active) | < 0.0197 µM (active) | < 0.01 µM (active) | 22.3 µM (inactive) | < 0.0106 µM (active) | 0.0944 µM (active) | < 0.0136 µM (active) | < 0.01 µM (active) | < 0.0173 µM (active) | < 0.01 µM (active) | 0.153 µM (active) | < 0.01 µM (active) | < 0.012 µM (active) | 0.0325 µM (active) | < 0.01 µM (active) | 0.0968 µM (active) | < 0.01 µM (active) | 0.196 µM (active) | –
2 | CC(Nc1ccc(Cl)cc1)c1ccncc1 (stereo not given) | > 100 µM (inactive) | 41.8 µM (inactive) | > 100 µM (inactive) | 55.7 µM (inactive) | > 100 µM (inactive) | 83.9 µM (inactive) | > 100 µM (inactive) | 36.8 µM (inactive) | – | – | 69.5 µM (inactive) | 74.6 µM (inactive) | > 100 µM (inactive) | > 100 µM (inactive) | > 100 µM (inactive) | > 100 µM (inactive) | > 100 µM (inactive) | 75.5 µM (inactive) | > 100 µM (inactive) | > 100 µM (inactive)
3 | COc1ccc2c(c1)[nH]c1c3ccc(OC)cc3oc(=O)c21 | > 100 µM (inactive) | > 100 µM (inactive) | > 100 µM (inactive) | > 100 µM (inactive) | 55.2 µM (inactive) | > 100 µM (inactive) | 0.91 µM (active) | > 100 µM (inactive) | 0.867 µM (active) | – | – | > 100 µM (inactive) | > 100 µM (inactive) | > 100 µM (inactive) | > 100 µM (inactive) | > 100 µM (inactive) | > 100 µM (inactive) | > 100 µM (inactive) | 25.1 µM (inactive) | 57.3 µM (inactive)
4 | O=S(=O)(c1ccccc1)n1c(C(O)c2ccncc2)cc2ccccc21 (stereo not given) | 50.6 µM (inactive) | 48.2 µM (inactive) | – | 10.7 µM (inactive) | – | 35.6 µM (inactive) | 36.3 µM (inactive) | 26.2 µM (inactive) | – | 38.5 µM (inactive) | – | 40.5 µM (inactive) | 40.3 µM (inactive) | 37.7 µM (inactive) | 31.3 µM (inactive) | 32 µM (inactive) | 55.1 µM (inactive) | 38.5 µM (inactive) | 34 µM (inactive) | 45.4 µM (inactive)
5 | O=C1CC2CC(CC3(CO3)C2)C1F (stereo not given) | > 100 µM (inactive) | > 100 µM (inactive) | > 100 µM (inactive) | > 100 µM (inactive) | > 100 µM (inactive) | > 100 µM (inactive) | > 100 µM (inactive) | > 100 µM (inactive) | > 100 µM (inactive) | > 100 µM (inactive) | > 100 µM (inactive) | > 100 µM (inactive) | > 100 µM (inactive) | > 100 µM (inactive) | > 100 µM (inactive) | – | > 100 µM (inactive) | > 100 µM (inactive) | 48.2 µM (inactive) | –
6 | O=C(NNC(=S)NCc1ccccc1)c1csc(NC(=S)NC2CCCCC2)n1 | 39.4 µM (inactive) | – | 38.6 µM (inactive) | 18.6 µM (inactive) | – | 46.2 µM (inactive) | 26.7 µM (inactive) | – | > 100 µM (inactive) | 31.5 µM (inactive) | 35.1 µM (inactive) | 59 µM (inactive) | 27.4 µM (inactive) | 38.2 µM (inactive) | 37.2 µM (inactive) | 32.5 µM (inactive) | – | 19.2 µM (inactive) | – | 36.9 µM (inactive)
7 | CC1=C(C(=O)NNC(=O)Cc2ccccc2)CC(C(=O)NNC(=O)Cc2ccccc2)=C(C)N1 | > 100 µM (inactive) | 47.8 µM (inactive) | – | > 100 µM (inactive) | – | – | 89.1 µM (inactive) | > 100 µM (inactive) | 25.5 µM (inactive) | – | – | > 100 µM (inactive) | 80 µM (inactive) | > 100 µM (inactive) | > 100 µM (inactive) | > 100 µM (inactive) | > 100 µM (inactive) | > 100 µM (inactive) | > 100 µM (inactive) | > 100 µM (inactive)
8 | CCCCN1C(=O)c2c(Br)sc(Br)c2C1=O | 38.9 µM (inactive) | 52 µM (inactive) | 33.2 µM (inactive) | 30.4 µM (inactive) | – | 26.3 µM (inactive) | 37.4 µM (inactive) | 31.6 µM (inactive) | – | 21.2 µM (inactive) | 0.391 µM (active) | 36.4 µM (inactive) | 32.6 µM (inactive) | 47.8 µM (inactive) | 25.8 µM (inactive) | 24.8 µM (inactive) | 43.9 µM (inactive) | 70.1 µM (inactive) | 29.5 µM (inactive) | 61.9 µM (inactive)
9 | CC(C)Oc1ccc2c(c1)OCC1Cc3ccccc3OC21 (stereo not given) | > 100 µM (inactive) | – | > 100 µM (inactive) | 33.7 µM (inactive) | – | > 100 µM (inactive) | 63.2 µM (inactive) | – | > 100 µM (inactive) | > 100 µM (inactive) | 79.1 µM (inactive) | > 100 µM (inactive) | > 100 µM (inactive) | – | > 100 µM (inactive) | > 100 µM (inactive) | – | 75.9 µM (inactive) | – | 58.2 µM (inactive)
10 | CC(/C=N/N=C1NCCCCN1)=N\N=C1NCCCCN1 | > 100 µM (inactive) | > 100 µM (inactive) | 35.8 µM (inactive) | 47.6 µM (inactive) | > 100 µM (inactive) | > 100 µM (inactive) | 47.9 µM (inactive) | > 100 µM (inactive) | – | 73.3 µM (inactive) | > 100 µM (inactive) | – | 16.7 µM (inactive) | > 100 µM (inactive) | > 100 µM (inactive) | > 100 µM (inactive) | > 100 µM (inactive) | > 100 µM (inactive) | > 100 µM (inactive) | > 100 µM (inactive)
11 | C/C(=N/NC(N)=S)C(CN(C)C)C(C1=C(O)c2ccccc2OC1)c1ccccc1 (stereo not given) | > 100 µM (inactive) | > 100 µM (inactive) | > 100 µM (inactive) | > 100 µM (inactive) | – | > 100 µM (inactive) | – | > 100 µM (inactive) | > 100 µM (inactive) | > 100 µM (inactive) | > 100 µM (inactive) | – | > 100 µM (inactive) | > 100 µM (inactive) | > 100 µM (inactive) | > 100 µM (inactive) | > 100 µM (inactive) | > 100 µM (inactive) | > 100 µM (inactive) | –
12 | CCOC(=O)c1c(C)cc(=O)n2c1[nH]c1ccccc12 | > 100 µM (inactive) | > 100 µM (inactive) | > 100 µM (inactive) | > 100 µM (inactive) | – | > 100 µM (inactive) | – | 14.1 µM (inactive) | > 100 µM (inactive) | – | – | > 100 µM (inactive) | > 100 µM (inactive) | 42.5 µM (inactive) | 82.2 µM (inactive) | > 100 µM (inactive) | > 100 µM (inactive) | > 100 µM (inactive) | – | > 100 µM (inactive)
13 | CCOC(=O)CCC(NC(=O)OCc1ccccc1)C(=O)NC(CCC(=O)OCC)C(=O)NC(CCC(=O)OCC)C(=O)NNC(=O)OC(C)(C)C (stereo not given) | > 100 µM (inactive) | > 100 µM (inactive) | > 100 µM (inactive) | > 100 µM (inactive) | > 100 µM (inactive) | 49 µM (inactive) | – | > 100 µM (inactive) | > 100 µM (inactive) | > 100 µM (inactive) | – | – | – | > 100 µM (inactive) | > 100 µM (inactive) | > 100 µM (inactive) | > 100 µM (inactive) | > 100 µM (inactive) | > 100 µM (inactive) | > 100 µM (inactive)
14 | O=C(/C(=C\C(=O)c1cccs1)c1ccsc1)c1ccc(Br)cc1 | > 100 µM (inactive) | – | 60.1 µM (inactive) | 42.8 µM (inactive) | > 100 µM (inactive) | > 100 µM (inactive) | > 100 µM (inactive) | > 100 µM (inactive) | > 100 µM (inactive) | > 100 µM (inactive) | – | > 100 µM (inactive) | – | > 100 µM (inactive) | > 100 µM (inactive) | > 100 µM (inactive) | > 100 µM (inactive) | 92.5 µM (inactive) | > 100 µM (inactive) | –
15 | Cn1c(=O)c2c(nc3sc4ccccc4c(=O)n32)n(C)c1=O | > 100 µM (inactive) | > 100 µM (inactive) | – | > 100 µM (inactive) | > 100 µM (inactive) | – | > 100 µM (inactive) | > 100 µM (inactive) | > 100 µM (inactive) | – | – | > 100 µM (inactive) | > 100 µM (inactive) | > 100 µM (inactive) | – | > 100 µM (inactive) | > 100 µM (inactive) | > 100 µM (inactive) | 68.4 µM (inactive) | > 100 µM (inactive)
16 | CCOC(=O)C1(NC(=O)OC(C)(C)C)CCc2[nH]oc(=O)c2C1 (stereo not given) | > 100 µM (inactive) | – | > 100 µM (inactive) | > 100 µM (inactive) | > 100 µM (inactive) | > 100 µM (inactive) | > 100 µM (inactive) | > 100 µM (inactive) | > 100 µM (inactive) | – | > 100 µM (inactive) | > 100 µM (inactive) | > 100 µM (inactive) | > 100 µM (inactive) | > 100 µM (inactive) | > 100 µM (inactive) | > 100 µM (inactive) | > 100 µM (inactive) | > 100 µM (inactive) | > 100 µM (inactive)
